# According to US20240325398A1, “COMBINATION THERAPIES” (Infinity Pharmaceuticals, Inc., priority 2014, published 2024):
# Where a name gives a salt, the structure may show the parent alone.
# Tests used:
# HH = assay: Combination study, ATPLite 72 h, dose matrix (Synergy Score, CI50); type: cell-based; conditions: combination with Compound 1
# Protocol: The method is described as follows.
# Additive effect is CI=1.0. […] Antagonistic effect is CI>1.0.
# The Synergy Score is calculated as: […]
# HBL-1 = assay: as above; conditions: combination with Compound 1, 72 h
# Protocol: (§1) Cells are thawed from a liquid nitrogen preserved state. Once cells have been expanded and divide at their expected doubling times, screening begins. Cells are seeded in growth media in either black 1536-well or 384-well tissue culture treated plates. Cells are then equilibrated in assay plates via centrifugation and placed in incubators attached to the Dosing Modules at 37° C. for 24 hours before treatment. […] These Tzero (To) plates are read using ultra-sensitive luminescence on Envision plate readers (Perkin Elmer). Treated assay plates are incubated with compound for 72 hours. After 72 hours, plates are developed for endpoint analysis using ATPLite. All data points are collected via automated processes, quality controlled and analyzed using Zalicus software.
# (§2) where T is treated cell count and V is untreated (vehicle) cell count (at 72 hours). I ranges from 0% (when T=V) to 100% (when T=0). […] The measure of effect in the experiment can be the inhibition of cellular response relative to the untreated level (vehicle alone). […] The inhibition ranges from 0% at the untreated level to 100% when T=0. Inhibition levels are negative for agents that actually increase levels. Other effect measures, such as an activity ratio r=T/V may be more appropriate for some assays. When activity ratios (e.g, fold increase over stimulated control) are being used, the effect can be measured using an induction 1=ln(T/V). With this definition, all effect expressions are the same as for inhibition.
# (§3) Growth Inhibition (GI) is used as a measure of cell viability. […] A GI reading of 100% represents complete growth inhibition—T72 compound-treated and T0 vehicle signals are matched. […] A GI reading of 200% represents complete death of all cells in the culture well. Compounds reaching an activity plateau of GI 200% are considered cytotoxic. GI is calculated by applying the following test and equation:
# (§4) Combination analysis data were collected in a 6×6 dose matrix. Synergy is calculated by comparing a combination's response to those of its single compound, against the drug-with-itself dose-additive reference model. Deviations from dose additivity may be assessed visually on an isobologram or numerically with a Combination Index (CI). […] Additive effect is CI=1.0. […] Antagonistic effect is CI>1.0.
# (§5) To measure combination effects in excess of Loewe additivity, a scalar measure to characterize the strength of synergistic interaction termed the Synergy Score is devised. The Synergy Score is calculated as:
# (§6) The fractional inhibition for each component agent and combination point in the matrix is calculated relative to the median of all vehicle-treated control wells. The Synergy Score equation integrates the experimentally-observed activity volume at each point in the matrix in excess of a model surface numerically derived from the activity of the component agents using the Loewe model for additivity. Additional terms in the Synergy Score equation (above) are used to normalize for various dilution factors used for individual agents and to allow for comparison of synergy scores across an entire experiment. The inclusion of positive inhibition gating or an Idata multiplier removes noise near the zero effect level, and biases results for synergistic interactions at that occur at high activity levels.
# Loewe Volume (Loewe Vol) is used to assess the overall magnitude of the combination interaction in excess of the Loewe additivity model. Loewe Volume is particularly useful when distinguishing synergistic increases in a phenotypic activity (positive Loewe Volume) versus synergistic antagonisms (negative Loewe Volume). […] This model defines additivity as a non-synergistic combination interaction where the combination dose matrix surface should be indistinguishable from either drug crossed with itself. The calculation for Loewe additivity is:
# OCI-Ly3 = assay: as above; conditions: combination with Compound 1; OCI-Ly3; 72 h
# U-2932 = assay: as above; conditions: combination with Compound 1, 72 h
# TMD8 = assay: as above; conditions: combination with Compound 1; TMD8; 72 h
# OCI-Ly7 = assay: as above; conditions: combination with Compound 1, 72 h
# SU-DHL-4-epst = assay: as above; conditions: combination with Compound 1, 72 h
# DOHH-2 = assay: as above; conditions: combination with Compound 1, 72 h
# Farage = assay: as above; conditions: combination with Compound 1; Farage; 72 h
# Protocol: as §1, §2, §3, §4
# The isobologram was drawn by identifying the locus of concentrations that correspond to crossing the indicated inhibition level. This is done by finding the crossing point for each single agent concentration in a dose matrix across the concentrations of the other single agent. Practically, each vertical concentration CY is held fixed while a bisection algorithm is used to identify the horizontal concentration CX in combination with that vertical dose that gives the chosen effect level in the response surface Z(CX,CY). These concentrations are then connected by linear interpolation to generate the isobologram display. For synergistic interactions, the isobologram contour fall below the additivity threshold and approaches the origin, and an antagonistic interaction would lie above the additivity threshold. The error bars represent the uncertainty arising from the individual data points used to generate the isobologram. The uncertainty for each crossing point is estimated from the response errors using bisection to find the concentrations where Z−αZ(CX,CY) and Z+σZ(CX,CY) cross Icut, where αZ is the standard deviation of the residual error on the effect scale.
# as §5
# The fractional inhibition for each component agent and combination point in the matrix is calculated relative to the median of all vehicle-treated control wells.
# SU-DHL-10-epst = assay: as above; conditions: combination with Compound 1, 72 h
# RL = assay: as above; conditions: combination with Compound 1, 72 h
# KARPAS-422 = assay: as above; conditions: combination with Compound 1, 72 h
# WSU-NHL = assay: as above; conditions: combination with Compound 1, 72 h
# KARPAS-299 = assay: as above; conditions: combination with Compound 1
# GRANTA-519 = assay: as above; conditions: combination with Compound 1
# Jeko-1 = assay: as above; conditions: combination with Compound 1
# Mino = assay: as above; conditions: combination with Compound 1
# Protocol: as §1, §2, §3, §4, §5, §6
# (§7) Loewe Volume (Loewe Vol) is used to assess the overall magnitude of the combination interaction in excess of the Loewe additivity model. Loewe Volume is particularly useful when distinguishing synergistic increases in a phenotypic activity (positive Loewe Volume) versus synergistic antagonisms (negative Loewe Volume). […] This model defines additivity as a non-synergistic combination interaction where the combination dose matrix surface should be indistinguishable from either drug crossed with itself.
# NCI-H929 = assay: as above; conditions: combination with Compound 1
# Protocol: as §1, §2, §3, §4, §5, §6, §7
# [1] = as above; conditions: combination with Compound 1; OPM-2
# OMP-2 = assay: as above; conditions: combination with Compound 1; OPM-2
# RPMI-8226 = assay: as above; conditions: combination with Compound 1
structure (smiles),measurement,setting,value
COc1cccc2c1C(=O)c1c(O)c3c(c(O)c1C2=O)C[C@@](O)(C(=O)CO)C[C@@H]3O[C@H]1C[C@H](N)[C@H](O)[C@H](C)O1 [Doxorubicin HCl],CI50 growth inhibition,HH,W (W=≥1)
same,CI50 inhibition,HH,T (T=0.5 to <0.7)
same,Synergy Score growth inhibition,HH,A3 (A3=>3)
same,Synergy Score inhibition,HH,A2 (A2=1 to <3)
same,CI50 growth inhibition,HBL-1,S (S=0.01 to <0.5)
same,CI50 inhibition,HBL-1,U (U=0.7 to <1)
same,Synergy Score growth inhibition,HBL-1,A3 (A3=>3)
same,Synergy Score inhibition,HBL-1,A1 (A1=0.0001 to <1)
same,CI50 growth inhibition,OCI-Ly3,U (U=0.7 to <1)
same,CI50 inhibition,OCI-Ly3,W (W=≥1)
same,Synergy Score growth inhibition,OCI-Ly3,A2 (A2=1 to <3)
same,Synergy Score inhibition,OCI-Ly3,A1 (A1=0.0001 to <1)
same,CI50 growth inhibition,U-2932,U (U=0.7 to <1)
same,CI50 inhibition,U-2932,W (W=≥1)
same,Synergy Score growth inhibition,U-2932,A2 (A2=1 to <3)
same,Synergy Score inhibition,U-2932,A1 (A1=0.0001 to <1)
same,CI50 growth inhibition,TMD8,T (T=0.5 to <0.7)
same,CI50 inhibition,TMD8,T (T=0.5 to <0.7)
same,Synergy Score growth inhibition,TMD8,A3 (A3=>3)
same,Synergy Score inhibition,TMD8,A2 (A2=1 to <3)
same,CI50 growth inhibition,OCI-Ly7,S (S=0.01 to <0.5)
same,CI50 inhibition,OCI-Ly7,S (S=0.01 to <0.5)
same,Synergy Score growth inhibition,OCI-Ly7,A3 (A3=>3)
same,Synergy Score inhibition,OCI-Ly7,A2 (A2=1 to <3)
same,CI50 growth inhibition,SU-DHL-4-epst,U (U=0.7 to <1)
same,CI50 inhibition,SU-DHL-4-epst,W (W=≥1)
same,Synergy Score growth inhibition,SU-DHL-4-epst,A3 (A3=>3)
same,Synergy Score inhibition,SU-DHL-4-epst,A2 (A2=1 to <3)
same,CI50 growth inhibition,DOHH-2,T (T=0.5 to <0.7)
same,CI50 inhibition,DOHH-2,T (T=0.5 to <0.7)
same,Synergy Score growth inhibition,DOHH-2,A3 (A3=>3)
same,Synergy Score inhibition,DOHH-2,A2 (A2=1 to <3)
same,CI50 growth inhibition,Farage,U (U=0.7 to <1)
same,CI50 inhibition,Farage,T (T=0.5 to <0.7)
same,Synergy Score growth inhibition,Farage,A3 (A3=>3)
same,Synergy Score inhibition,Farage,A1 (A1=0.0001 to <1)
same,CI50 growth inhibition,SU-DHL-10-epst,T (T=0.5 to <0.7)
same,CI50 inhibition,SU-DHL-10-epst,T (T=0.5 to <0.7)
same,Synergy Score growth inhibition,SU-DHL-10-epst,A3 (A3=>3)
same,Synergy Score inhibition,SU-DHL-10-epst,A2 (A2=1 to <3)
same,CI50 growth inhibition,RL,U (U=0.7 to <1)
same,CI50 inhibition,RL,W (W=≥1)
same,Synergy Score growth inhibition,RL,A2 (A2=1 to <3)
same,Synergy Score inhibition,RL,A1 (A1=0.0001 to <1)
same,CI50 growth inhibition,KARPAS-422,W (W=≥1)
same,CI50 inhibition,KARPAS-422,W (W=≥1)
same,Synergy Score growth inhibition,KARPAS-422,A1 (A1=0.0001 to <1)
same,Synergy Score inhibition,KARPAS-422,A1 (A1=0.0001 to <1)
same,CI50 growth inhibition,WSU-NHL,T (T=0.5 to <0.7)
same,CI50 inhibition,WSU-NHL,S (S=0.01 to <0.5)
same,Synergy Score growth inhibition,WSU-NHL,A3 (A3=>3)
same,Synergy Score inhibition,WSU-NHL,A2 (A2=1 to <3)
same,CI50 growth inhibition,KARPAS-299,U (U=0.7 to <1)
same,CI50 inhibition,KARPAS-299,U (U=0.7 to <1)
same,Synergy Score growth inhibition,KARPAS-299,A2 (A2=1 to <3)
same,Synergy Score inhibition,KARPAS-299,A1 (A1=0.0001 to <1)
same,CI50 growth inhibition,GRANTA-519,S (S=0.01 to <0.5)
same,CI50 inhibition,GRANTA-519,W (W=≥1)
same,Synergy Score growth inhibition,GRANTA-519,A3 (A3=>3)
same,Synergy Score inhibition,GRANTA-519,A1 (A1=0.0001 to <1)
same,CI50 growth inhibition,Jeko-1,T (T=0.5 to <0.7)
same,CI50 inhibition,Jeko-1,U (U=0.7 to <1)
same,Synergy Score growth inhibition,Jeko-1,A3 (A3=>3)
same,Synergy Score inhibition,Jeko-1,A1 (A1=0.0001 to <1)
same,CI50 growth inhibition,Mino,T (T=0.5 to <0.7)
same,CI50 inhibition,Mino,T (T=0.5 to <0.7)
same,Synergy Score growth inhibition,Mino,A3 (A3=>3)
same,Synergy Score inhibition,Mino,A2 (A2=1 to <3)
same,CI50 growth inhibition,NCI-H929,U (U=0.7 to <1)
same,CI50 inhibition,NCI-H929,U (U=0.7 to <1)
same,Synergy Score growth inhibition,NCI-H929,A3 (A3=>3)
same,Synergy Score inhibition,NCI-H929,A1 (A1=0.0001 to <1)
same,CI50 growth inhibition,[1],W (W=≥1)
same,CI50 inhibition,OMP-2,W (W=≥1)
same,Synergy Score growth inhibition,OMP-2,A2 (A2=1 to <3)
same,Synergy Score inhibition,OMP-2,A1 (A1=0.0001 to <1)
same,CI50 growth inhibition,RPMI-8226,U (U=0.7 to <1)
same,CI50 inhibition,RPMI-8226,W (W=≥1)
same,Synergy Score growth inhibition,RPMI-8226,A3 (A3=>3)
same,Synergy Score inhibition,RPMI-8226,A2 (A2=1 to <3)
"CS(=O)(=O)N1CCN(Cc2cc3nc(-c4cccc5[nH]ncc45)nc(N4CCOCC4)c3s2)CC1 [GDC-0941, 2-(1H-indazol-4-yl)-6-((4-(methylsulfonyl)piperazin-1-yl)methyl)-4-morpholinothieno[3,2-d]pyrimidine]",CI50 growth inhibition,HH,W (W=≥1)
same,CI50 inhibition,HH,W (W=≥1)
same,Synergy Score growth inhibition,HH,A1 (A1=0.0001 to <1)
same,Synergy Score inhibition,HH,A1 (A1=0.0001 to <1)
same,CI50 growth inhibition,HBL-1,U (U=0.7 to <1)
same,CI50 inhibition,HBL-1,W (W=≥1)
same,Synergy Score growth inhibition,HBL-1,A2 (A2=1 to <3)
same,Synergy Score inhibition,HBL-1,A1 (A1=0.0001 to <1)
same,CI50 growth inhibition,OCI-Ly3,U (U=0.7 to <1)
same,CI50 inhibition,OCI-Ly3,W (W=≥1)
same,Synergy Score growth inhibition,OCI-Ly3,A1 (A1=0.0001 to <1)
same,Synergy Score inhibition,OCI-Ly3,A1 (A1=0.0001 to <1)
same,CI50 growth inhibition,U-2932,T (T=0.5 to <0.7)
same,CI50 inhibition,U-2932,W (W=≥1)
same,Synergy Score growth inhibition,U-2932,A1 (A1=0.0001 to <1)
same,Synergy Score inhibition,U-2932,A1 (A1=0.0001 to <1)
same,CI50 growth inhibition,TMD8,U (U=0.7 to <1)
same,CI50 inhibition,TMD8,W (W=≥1)
same,Synergy Score growth inhibition,TMD8,A3 (A3=>3)
same,Synergy Score inhibition,TMD8,A2 (A2=1 to <3)
same,CI50 growth inhibition,OCI-Ly7,U (U=0.7 to <1)
same,CI50 inhibition,OCI-Ly7,W (W=≥1)
same,Synergy Score growth inhibition,OCI-Ly7,A1 (A1=0.0001 to <1)
same,Synergy Score inhibition,OCI-Ly7,A1 (A1=0.0001 to <1)
same,CI50 growth inhibition,SU-DHL-4-epst,T (T=0.5 to <0.7)
same,CI50 inhibition,SU-DHL-4-epst,T (T=0.5 to <0.7)
same,Synergy Score growth inhibition,SU-DHL-4-epst,A3 (A3=>3)
same,Synergy Score inhibition,SU-DHL-4-epst,A2 (A2=1 to <3)
same,CI50 growth inhibition,DOHH-2,T (T=0.5 to <0.7)
same,CI50 inhibition,DOHH-2,T (T=0.5 to <0.7)
same,Synergy Score growth inhibition,DOHH-2,A3 (A3=>3)
same,Synergy Score inhibition,DOHH-2,A2 (A2=1 to <3)
same,CI50 growth inhibition,Farage,T (T=0.5 to <0.7)
same,CI50 inhibition,Farage,S (S=0.01 to <0.5)
same,Synergy Score growth inhibition,Farage,A3 (A3=>3)
same,Synergy Score inhibition,Farage,A2 (A2=1 to <3)
same,CI50 growth inhibition,SU-DHL-10-epst,S (S=0.01 to <0.5)
same,CI50 inhibition,SU-DHL-10-epst,T (T=0.5 to <0.7)
same,Synergy Score growth inhibition,SU-DHL-10-epst,A3 (A3=>3)
same,Synergy Score inhibition,SU-DHL-10-epst,A2 (A2=1 to <3)
same,CI50 growth inhibition,RL,U (U=0.7 to <1)
same,CI50 inhibition,RL,U (U=0.7 to <1)
same,Synergy Score growth inhibition,RL,A2 (A2=1 to <3)
same,Synergy Score inhibition,RL,A2 (A2=1 to <3)
same,CI50 growth inhibition,KARPAS-422,T (T=0.5 to <0.7)
same,CI50 inhibition,KARPAS-422,U (U=0.7 to <1)
same,Synergy Score growth inhibition,KARPAS-422,A1 (A1=0.0001 to <1)
same,Synergy Score inhibition,KARPAS-422,A1 (A1=0.0001 to <1)
same,CI50 growth inhibition,WSU-NHL,U (U=0.7 to <1)
same,CI50 inhibition,WSU-NHL,T (T=0.5 to <0.7)
same,Synergy Score growth inhibition,WSU-NHL,A3 (A3=>3)
same,Synergy Score inhibition,WSU-NHL,A2 (A2=1 to <3)
same,CI50 growth inhibition,KARPAS-299,W (W=≥1)
same,Synergy Score growth inhibition,KARPAS-299,A1 (A1=0.0001 to <1)
same,Synergy Score inhibition,KARPAS-299,A1 (A1=0.0001 to <1)
same,CI50 growth inhibition,GRANTA-519,S (S=0.01 to <0.5)
same,CI50 inhibition,GRANTA-519,U (U=0.7 to <1)
same,Synergy Score growth inhibition,GRANTA-519,A2 (A2=1 to <3)
same,Synergy Score inhibition,GRANTA-519,A1 (A1=0.0001 to <1)
same,CI50 growth inhibition,Jeko-1,S (S=0.01 to <0.5)
same,CI50 inhibition,Jeko-1,S (S=0.01 to <0.5)
same,Synergy Score growth inhibition,Jeko-1,A1 (A1=0.0001 to <1)
same,Synergy Score inhibition,Jeko-1,A1 (A1=0.0001 to <1)
same,CI50 growth inhibition,Mino,S (S=0.01 to <0.5)
same,CI50 inhibition,Mino,T (T=0.5 to <0.7)
same,Synergy Score growth inhibition,Mino,A2 (A2=1 to <3)
same,Synergy Score inhibition,Mino,A2 (A2=1 to <3)
same,CI50 growth inhibition,NCI-H929,T (T=0.5 to <0.7)
same,CI50 inhibition,NCI-H929,T (T=0.5 to <0.7)
same,Synergy Score growth inhibition,NCI-H929,A3 (A3=>3)
same,Synergy Score inhibition,NCI-H929,A2 (A2=1 to <3)
same,CI50 growth inhibition,[1],U (U=0.7 to <1)
same,CI50 inhibition,OMP-2,W (W=≥1)
same,Synergy Score growth inhibition,OMP-2,A3 (A3=>3)
same,Synergy Score inhibition,OMP-2,A1 (A1=0.0001 to <1)
same,CI50 growth inhibition,RPMI-8226,U (U=0.7 to <1)
same,CI50 inhibition,RPMI-8226,W (W=≥1)
same,Synergy Score growth inhibition,RPMI-8226,A2 (A2=1 to <3)
same,Synergy Score inhibition,RPMI-8226,A1 (A1=0.0001 to <1)
